# Data reported in patent US9434763B2, “Derivatives of pyridinone as inhibitors for tissue transglutaminase” (ZEDIRA GMBH, priority 2012, dated 2016).
# Target: T1, His tagged recombinant human tissue transglutaminase (His6-rh-TG2) (Homo sapiens, UniProt P21980)
# T1 construct: purchased Zedira T002
# T1 sequence (P21980 1-687): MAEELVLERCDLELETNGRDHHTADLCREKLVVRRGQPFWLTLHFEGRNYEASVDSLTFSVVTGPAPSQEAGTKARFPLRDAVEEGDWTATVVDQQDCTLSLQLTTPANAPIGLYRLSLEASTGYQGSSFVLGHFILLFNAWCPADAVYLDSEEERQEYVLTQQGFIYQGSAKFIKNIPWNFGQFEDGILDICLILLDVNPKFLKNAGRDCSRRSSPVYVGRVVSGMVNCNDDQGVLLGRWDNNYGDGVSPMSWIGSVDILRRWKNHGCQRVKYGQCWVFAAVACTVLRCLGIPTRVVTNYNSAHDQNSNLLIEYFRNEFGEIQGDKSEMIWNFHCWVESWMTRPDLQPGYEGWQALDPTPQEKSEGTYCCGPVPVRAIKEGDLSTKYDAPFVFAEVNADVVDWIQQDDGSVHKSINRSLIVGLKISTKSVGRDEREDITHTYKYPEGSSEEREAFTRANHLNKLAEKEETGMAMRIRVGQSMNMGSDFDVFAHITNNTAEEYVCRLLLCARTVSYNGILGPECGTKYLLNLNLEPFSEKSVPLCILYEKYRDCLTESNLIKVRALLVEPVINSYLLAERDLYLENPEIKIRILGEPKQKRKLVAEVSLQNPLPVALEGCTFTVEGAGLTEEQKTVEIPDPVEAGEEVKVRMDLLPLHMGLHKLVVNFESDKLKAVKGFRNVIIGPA
# Test: Inactivation of human tissue transglutaminase, fluorescence assay with Abz-APE(CAD-DNP)QEA-OH
# Format: biochemical
# Conditions: substrate Abz-APE(CAD-DNP)QEA-OH, 37° C., pH=7.5
# Experimental: General Method for Inactivation of Human Tissue Transglutaminase
# 250 μg lyophilized His tagged recombinant human tissue transglutaminase (His6-rh-TG2, Zedira product T002) are reconstituted by adding 150 μl water (resulting buffer 50 mM NaH2PO4, 150 mM NaCl, pH=8.0).
# A 10 mM inhibitor stock solution in DMSO is prepared and is diluted with buffer (50 mM Tris-HCl, 10 mM CaCl2, 5 mM DTT, pH=7.5) each to the twentyfold of the concentration desired in the preparation (but at least 1/50 dilution resulting in a 2% DMSO concentration).
# 900 μl of an assay-solution consisting of 55.56 mM Tris, 11.11 mM CaCl2, 0.11% PEG8000, 5.56 mM DTT, 5.56 mM glycine methyl ester and 50 μM Abz-APE(CAD-DNP)QEA-OH, (Zedira product A102; patent No.: EP 1781807B1), pH=7.5 are added to a cuvette and heated in a measuring cell of a spectrophotometer to 37° C. 50 μl of the particular inhibitor solution are added to this solution (resulting in a concentration of less than 0.2% DMSO in the mixture).
# 7 μl of the transglutaminase solution reconstituted above are diluted with 51 μl buffer (50 mM Tris, 100 mM NaCl, 5 mM DTT, pH=7.5). 50 μl of this enzyme solution (10 μg His6-rhTG2) are added to the assay-solution containing the particular inhibitor concentration. It is incubated 5 min at 37° C. before measuring starts (λexc=313 nm and λem=418 nm, t=15 to 30 min).
# The evaluation of the resulting enzyme activity is done using the slope of the straight line obtained by the increase in fluorescence.
# To determine the non-inhibited enzyme activity, DMSO instead of inhibitor stock solution is used. IC50 values are determined by plotting the resulting enzyme activity against the logarithm of the inhibitor concentration. IC50 is defined as the concentration of inhibitor resulting in 50% of enzyme activity.
row,IC50,Compound
1,0.1 µM,"CCOC(=O)/C=C/CC[C@H](NC(=O)OCc1ccccc1)C(=O)Nc1cccn(CC(=O)NCCc2c(C)cc(C)cc2C)c1=O [A1, (S,E)-Ethyl 6-(benzyloxycarbonylamino)-7-oxo-7-(2-oxo-1-(2-oxo-2-(2,4,6-trimethylphenethylamino)ethyl)-1,2-dihydropyridin-3-ylamino)hept-2-enoate]"
2,0.1 µM,"CCOC(=O)/C=C/CC[C@H](NC(=O)OCc1ccccc1)C(=O)Nc1ccc(C)n(CC(=O)NCCC(C)C)c1=O [A2, (S,E)-Ethyl 6-(benzyloxycarbonylamino)-7-(1-(2-(isopentylamino)-2-oxoethyl)-6-methyl-2-oxo-1,2-dihydropyridin-3-ylamino)-7-oxohept-2-enoate]"
3,0.096 µM,"CCOC(=O)/C=C/CC[C@H](NC(=O)OCc1ccccc1)C(=O)Nc1cccn(CC(=O)NCCC(C)C)c1=O [A3, (S,E)-Ethyl 6-(benzyloxycarbonylamino)-7-(1-(2-(isopentylamino)-2-oxoethyl)-2-oxo-1,2-dihydropyridin-3-ylamino)-7-oxohept-2-enoate]"
4,0.119 µM,"CCOC(=O)/C=C/CC[C@H](NC(C)=O)C(=O)Nc1ccc(C)n(CC(=O)NCCC(C)C)c1=O [A4, (S,E)-Ethyl 6-acetamido-7-(1-(2-(isopentylamino)-2-oxoethyl)-6-methyl-2-oxo-1,2-dihydropyridin-3-ylamino)-7-oxohept-2-enoate]"
5,0.13 µM,"CCOC(=O)/C=C/CC[C@H](NC(=O)OCc1ccccc1)C(=O)Nc1ccc(C)n(CC(=O)NC(CC(=O)O)CC(C)C)c1=O (stereo partly drawn) [A5, 3-(2-(3-((S,E)-2-(Benzyloxycarbonylamino)-7-ethoxy-7-oxohept-5-enamido)-6-methyl-2-oxopyridin-1(2H)-yl)acetamido)-5-methylhexanoic acid]"
6,0.532 µM,"CC(=O)N[C@@H](CC/C=C/C(=O)OC(C)C)C(=O)Nc1cccn(CC(=O)NCCC(C)C)c1=O [A6, (S,E)-isopropyl 6-acetamido-7-(1-(2-(isopentylamino)-2-oxoethyl)-2-oxo-1,2-dihydropyridin-3-ylamino)-7-oxohept-2-enoate]"
7,0.251 µM,"CCOC(=O)/C=C/CC[C@H](NC(=O)c1cccnc1)C(=O)Nc1ccc(C)n(CC(=O)NCCc2ccccc2)c1=O [A8, (S,E)-Ethyl 7-(6-methyl-2-oxo-1-(2-oxo-2-(phenethylamino)ethyl)-1,2-dihydropyridin-3-ylamino)-6-(nicotinamido)-7-oxohept-2-enoate]"
8,0.708 µM,"CCOC(=O)/C=C/CC[C@H](NS(=O)(=O)Cc1ccc(Cl)cc1)C(=O)Nc1cccn(CC(=O)NCCC(C)C)c1=O [A9, (S,E)-ethyl 6-((4-chlorophenyl)methylsulfonamido)-7-(1-(2-(isopentylamino)-2-oxoethyl)-2-oxo-1,2-dihydropyridin-3-ylamino)-7-oxohept-2-enoate]"
9,0.073 µM,"CCOC(=O)/C=C/CC[C@H](NC(=O)c1ccccc1)C(=O)Nc1cccn(CC(=O)NCCC(C)C)c1=O [A10, (S,E)-Ethyl 6-benzamido-7-(1-(2-(isopentylamino)-2-oxoethyl)-2-oxo-1,2-dihydropyridin-3-ylamino)-7-oxohept-2-enoate]"
10,0.104 µM,"CCOC(=O)/C=C/CC[C@H](NC(=O)c1ccoc1)C(=O)Nc1cccn(CC(=O)NCCC(C)C)c1=O [A11, (S,E)-Ethyl 6-(furan-3-carboxamido)-7-(1-(2-(isopentylamino)-2-oxoethyl)-2-oxo-1,2-dihydropyridin-3-ylamino)-7-oxohept-2-enoate]"
11,0.084 µM,"CCOC(=O)/C=C/CC[C@H](NC(=O)c1ccsc1)C(=O)Nc1cccn(CC(=O)NCCC(C)C)c1=O [A12, (S,E)-Ethyl 7-(1-(2-(isopentylamino)-2-oxoethyl)-2-oxo-1,2-dihydropyridin-3-ylamino)-7-oxo-6-(thiophene-3-carboxamido)hept-2-enoate]"
12,0.083 µM,"CCOC(=O)/C=C/CC[C@H](NS(=O)(=O)c1ccoc1)C(=O)Nc1cccn(CC(=O)NCCC(C)C)c1=O [A13, (S,E)-Ethyl 6-(furan-3-sulfonamido)-7-(1-(2-(isopentylamino)-2-oxoethyl)-2-oxo-1,2-dihydropyridin-3-ylamino)-7-oxohept-2-enoate]"
